Reference: patent US8940724B2, “Quinoline derivitives and their uses” (Amgen Inc., priority 2009, dated 2015)

test system: mouse model of rheumatoid arthritis; assay: not given; conditions: in vivo; cited from earlier work

| Compound | efficacy in a mouse model of rheumatoid arthritis |
| --- | --- |
| O=C1NC(=O)/C(=C\c2ccc3nccnc3c2)S1 [AS 605240] | efficacious |

test system: ovalbumin-induced airway inflammation; assay: not given; conditions: cited from earlier work

| Compound | inflammation and disease in a murine model of asthma |
| --- | --- |
| Cc1ccccc1-n1c(Cn2cnc3c(N)ncnc32)nc2cccc(C)c2c1=O [IC87114] | significantly ameliorate inflammation and disease |

target: T1, PI3Kδ (Homo sapiens, UniProt O00329); assay: PI3Kδ Alphascreen assay; format: biochemical; conditions: not given
T1 construct: Full length p110 subunits of PI3k α, β and δ, N-terminally labeled with polyHis tag; polyHis (N); made in house; host or cells: Sf9 insect cells (baculovirus)
T1 sequence (P27986 whole entry partner, one chain of several): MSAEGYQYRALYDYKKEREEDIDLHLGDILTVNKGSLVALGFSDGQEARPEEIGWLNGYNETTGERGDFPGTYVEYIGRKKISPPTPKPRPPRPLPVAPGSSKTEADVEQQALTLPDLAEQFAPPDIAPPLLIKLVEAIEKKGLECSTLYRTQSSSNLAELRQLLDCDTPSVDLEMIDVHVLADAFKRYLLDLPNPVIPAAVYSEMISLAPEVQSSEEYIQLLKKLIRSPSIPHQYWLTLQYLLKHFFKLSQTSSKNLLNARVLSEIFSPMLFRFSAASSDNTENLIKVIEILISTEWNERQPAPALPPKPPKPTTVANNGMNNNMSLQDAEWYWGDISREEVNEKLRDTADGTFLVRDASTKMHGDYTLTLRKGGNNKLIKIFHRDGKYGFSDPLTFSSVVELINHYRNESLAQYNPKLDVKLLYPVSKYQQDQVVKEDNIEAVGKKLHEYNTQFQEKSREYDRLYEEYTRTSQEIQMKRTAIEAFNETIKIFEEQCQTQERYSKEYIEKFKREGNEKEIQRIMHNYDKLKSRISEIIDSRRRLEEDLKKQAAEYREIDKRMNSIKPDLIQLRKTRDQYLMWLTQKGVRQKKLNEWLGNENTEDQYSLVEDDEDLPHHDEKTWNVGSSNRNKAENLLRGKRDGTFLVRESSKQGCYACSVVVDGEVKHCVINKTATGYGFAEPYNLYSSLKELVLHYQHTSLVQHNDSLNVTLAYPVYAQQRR

| Compound | Ki |
| --- | --- |
| CCOC(=O)N1CCN(c2nc3cc(F)cc(F)c3c(Nc3cncc(N4CCOCC4)c3)c2C)CC1 [ethyl 4-(5,7-difluoro-3-methyl-4-((5-(4-morpholinyl)-3-pyridinyl)amino)-2-quinolinyl)-1-piperazinecarboxylate] | 45.5 nM |
| COC(=O)N1CCN(c2nc3cc(F)cc(F)c3c(Nc3cc(N4CCOCC4)cnc3N3CCOCC3)c2C)CC1 [methyl 4-(4-((2,5-di-4-morpholinyl-3-pyridinyl)amino)-5,7-difluoro-3-methyl-2-quinolinyl)-1-piperazinecarboxylate] | 7.02 nM |
| COC(=O)N1CCN(c2nc3cc(F)cc(F)c3c(Nc3cncc(N4CCOCC4)c3)c2C)C[C@H]1C [methyl (2R)-4-(5,7-difluoro-3-methyl-4-((5-(4-morpholinyl)-3-pyridinyl)amino)-2-quinolinyl)-2-methyl-1-piperazinecarboxylate] | 185 nM |
| COC(=O)N1CCN(c2nc3cc(F)cc(F)c3c(Nc3cncc(N4CCOCC4)c3)c2C)C[C@@H]1C [methyl (2S)-4-(5,7-difluoro-3-methyl-4-((5-(4-morpholinyl)-3-pyridinyl)amino)-2-quinolinyl)-2-methyl-1-piperazinecarboxylate] | 15 nM |
| Cc1c(N2CCC[C@@H]2C(=O)OC(C)(C)C)nc2cc(F)cc(F)c2c1Nc1cncc(N2CCOCC2)c1 [tert-butyl 1-(5,7-difluoro-3-methyl-4-((5-(4-morpholinyl)-3-pyridinyl)amino)-2-quinolinyl)-D-prolinate] | 18 nM |
| Cc1c(N2CCC[C@H]2C(=O)OC(C)(C)C)nc2cc(F)cc(F)c2c1Nc1cncc(N2CCOCC2)c1 [tert-butyl 1-(5,7-difluoro-3-methyl-4-((5-(4-morpholinyl)-3-pyridinyl)amino)-2-quinolinyl)-L-prolinate] | 2.22 nM |
| Cc1c(N2CCN(C(=O)OC(C)(C)C)CC2)nc2cc(F)cc(F)c2c1Nc1cc(N2CCOCC2)cnc1N1CCOCC1 [tert-butyl 4-(4-((2,5-di-4-morpholinyl-3-pyridinyl)amino)-5,7-difluoro-3-methyl-2-quinolinyl)-1-piperazinecarboxylate] | 34.1 nM |
| Cc1c(N2CCN(C(=O)OC(C)(C)C)CC2)nc2cc(F)cc(F)c2c1Nc1cncc(N2CCOCC2)c1 [tert-butyl 4-(5,7-difluoro-3-methyl-4-((5-(4-morpholinyl)-3-pyridinyl)amino)-2-quinolinyl)-1-piperazinecarboxylate] | 353 nM |
| Cc1c(N2CCN(C(=O)OC(C)(C)C)[C@H](C)C2)nc2cc(F)cc(F)c2c1Nc1cncc(N2CCOCC2)c1 [tert-butyl (2R)-4-(5,7-difluoro-3-methyl-4-((5-(4-morpholinyl)-3-pyridinyl)amino)-2-quinolinyl)-2-methyl-1-piperazinecarboxylate] | 832 nM |
| Cc1c(N2CCN(C(=O)OC(C)(C)C)[C@@H](C)C2)nc2cc(F)cc(F)c2c1Nc1cncc(N2CCOCC2)c1 [tert-butyl (2S)-4-(5,7-difluoro-3-methyl-4-((5-(4-morpholinyl)-3-pyridinyl)amino)-2-quinolinyl)-2-methyl-1-piperazinecarboxylate] | 112 nM |
| Cc1c(N2CCN(C(=O)OC(C)(C)C)C[C@@H]2C)nc2cc(F)cc(F)c2c1Nc1cncc(N2CCOCC2)c1 [tert-butyl (3S)-4-(5,7-difluoro-3-methyl-4-((5-(4-morpholinyl)-3-pyridinyl)amino)-2-quinolinyl)-3-methyl-1-piperazinecarboxylate] | 358 nM |

Second part, the molecule after the results:

| Ki | Compound |
| --- | --- |
| 7.68 nM | COc1cnccc1-c1ncc(N2CCOCC2)cc1Nc1c(C)c(-c2ccccn2)nc2cc(F)cc(F)c12 [N-(5,7-difluoro-3-methyl-2-(2-pyridinyl)-4-quinolinyl)-3′-methoxy-5-(4-morpholinyl)-2,4′-bipyridin-3-amine] |
| 23.5 nM | COc1cc(-c2ncc(N3CCOCC3)cc2Nc2c(C)c(-c3ccccn3)nc3cc(F)cc(F)c23)c(F)cn1 [N-(5,7-difluoro-3-methyl-2-(2-pyridinyl)-4-quinolinyl)-5′-fluoro-2′-methoxy-5-(4-morpholinyl)-2,4′-bipyridin-3-amine] |
| 0.512 nM | COc1cncc(-c2ncc(N3CCOCC3)cc2Nc2c(C)c(-c3ccccn3)nc3cc(F)cc(F)c23)c1 [N-(5,7-difluoro-3-methyl-2-(2-pyridinyl)-4-quinolinyl)-5′-methoxy-5-(4-morpholinyl)-2,3′-bipyridin-3-amine] |
| 2.62 nM | CCOc1ccc(-c2ncc(N3CCOCC3)cc2Nc2c(C)c(-c3ccccn3)nc3cc(F)cc(F)c23)cn1 [N-(5,7-difluoro-3-methyl-2-(2-pyridinyl)-4-quinolinyl)-6′-ethoxy-5-(4-morpholinyl)-2,3′-bipyridin-3-amine] |
| 1.54 nM | COc1ccc(-c2ncc(N3CCOCC3)cc2Nc2c(C)c(-c3ccccn3)nc3cc(F)cc(F)c23)cn1 [N-(5,7-difluoro-3-methyl-2-(2-pyridinyl)-4-quinolinyl)-6′-methoxy-5-(4-morpholinyl)-2,3′-bipyridin-3-amine] |
| 47.3 nM | Cc1c(-c2cccnc2)nc2cc(F)cc(F)c2c1N(C(=O)C(F)(F)F)c1cncc(N2CCOCC2)c1 [N-(5,7-difluoro-3-methyl-2-(3-pyridinyl)-4-quinolinyl)-2,2,2-trifluoro-N-(5-(4-morpholinyl)-3-pyridinyl)acetamide] |
| 3.18 nM | COc1ccc(-c2ncc(N3CCOCC3)cc2Nc2c(C)c(-c3cc(C)ccn3)nc3cc(F)cc(F)c23)cn1 [N-(5,7-difluoro-3-methyl-2-(4-methyl-2-pyridinyl)-4-quinolinyl)-6′-methoxy-5-(4-morpholinyl)-2,3′-bipyridin-3-amine] |
| 131 nM | Cc1c(NCC(=O)O)nc2cc(F)cc(F)c2c1Nc1cncc(N2CCOCC2)c1 [N-(5,7-difluoro-3-methyl-4-((5-(4-morpholinyl)-3-pyridinyl)-amino)-2-quinolinyl)glycine] |
| 5.34 nM | Cc1ccnc(-c2nc3cc(F)cc(F)c3c(Nc3cncc(-c4ccnc(N)n4)c3)c2C)c1 [N-(5-(2-amino-4-pyrimidinyl)-3-pyridinyl)-5,7-difluoro-3-methyl-2-(4-methyl-2-pyridinyl)-4-quinolinamine] |
| 1.78 nM | Cc1c(-c2ccccc2S(C)(=O)=O)nc2cc(F)cc(F)c2c1Nc1cncc(C2=CCOCC2)c1 [N-(5-(3,6-dihydro-2H-pyran-4-yl)-3-pyridinyl)-5,7-difluoro-3-methyl-2-(2-(methylsulfonyl)phenyl)-4-quinolinamine] |
| 14.4 nM | Cc1ccnc(-c2nc3cc(F)cc(F)c3c(Nc3cncc(C4=CCOCC4)c3)c2C)c1 [N-(5-(3,6-dihydro-2H-pyran-4-yl)-3-pyridinyl)-5,7-difluoro-3-methyl-2-(4-methyl-2-pyridinyl)-4-quinolinamine] |
| 68.3 nM | Cc1c(N2CCOCC2)nc2cc(F)cc(F)c2c1Nc1cncc(C2=CCOCC2)c1 [N-(5-(3,6-dihydro-2H-pyran-4-yl)-3-pyridinyl)-5,7-difluoro-3-methyl-2-(4-morpholinyl)-4-quinolinamine] |
| 9.01 nM | COc1cncc(-c2ncc(N3CCOCC3)cc2Nc2c(C)c(-c3cc(C)ccn3)nc3c(Cl)cccc23)c1 [N-(8-chloro-3-methyl-2-(4-methyl-2-pyridinyl)-4-quinolinyl)-5′-methoxy-5-(4-morpholinyl)-2,3′-bipyridin-3-amine] |
| 9.23 nM | COC(=O)N1CCN(c2nc3cc(F)cc(F)c3c(Nc3cncc(N4CCOCC4)c3)c2C)CC1 [methyl 4-(5,7-difluoro-3-methyl-4-((5-(4-morpholinyl)-3-pyridinyl)amino)-2-quinolinyl)-1-piperazinecarboxylate] |
| 31.8 nM | COC(=O)N1CCN(c2nc3cc(F)cc(F)c3c(Nc3cncc(N4CCOCC4)c3)c2C)[C@H](C)C1 [methyl (3R)-4-(5,7-difluoro-3-methyl-4-((5-(4-morpholinyl)-3-pyridinyl)amino)-2-quinolinyl)-3-methyl-1-piperazinecarboxylate] |

test system: protein kinases; assay: not given; conditions: cited from earlier work

| Compound | activity against any protein kinases tested |
| --- | --- |
| Cc1ccccc1-n1c(Cn2cnc3c(N)ncnc32)nc2cccc(C)c2c1=O [IC87114] | no activity |

test system: model of systemic lupus erythematosis; assay: not given; conditions: in vivo; cited from earlier work

| Compound | onset of disease in a model of systemic lupus erythematosis |
| --- | --- |
| O=C1NC(=O)/C(=C\c2ccc3nccnc3c2)S1 [AS 605240] | delay onset of disease |

target: T2, p110δ (Homo sapiens, UniProt O00329); assay: not given; conditions: cited from earlier work
T2 sequence (O00329 1-1044): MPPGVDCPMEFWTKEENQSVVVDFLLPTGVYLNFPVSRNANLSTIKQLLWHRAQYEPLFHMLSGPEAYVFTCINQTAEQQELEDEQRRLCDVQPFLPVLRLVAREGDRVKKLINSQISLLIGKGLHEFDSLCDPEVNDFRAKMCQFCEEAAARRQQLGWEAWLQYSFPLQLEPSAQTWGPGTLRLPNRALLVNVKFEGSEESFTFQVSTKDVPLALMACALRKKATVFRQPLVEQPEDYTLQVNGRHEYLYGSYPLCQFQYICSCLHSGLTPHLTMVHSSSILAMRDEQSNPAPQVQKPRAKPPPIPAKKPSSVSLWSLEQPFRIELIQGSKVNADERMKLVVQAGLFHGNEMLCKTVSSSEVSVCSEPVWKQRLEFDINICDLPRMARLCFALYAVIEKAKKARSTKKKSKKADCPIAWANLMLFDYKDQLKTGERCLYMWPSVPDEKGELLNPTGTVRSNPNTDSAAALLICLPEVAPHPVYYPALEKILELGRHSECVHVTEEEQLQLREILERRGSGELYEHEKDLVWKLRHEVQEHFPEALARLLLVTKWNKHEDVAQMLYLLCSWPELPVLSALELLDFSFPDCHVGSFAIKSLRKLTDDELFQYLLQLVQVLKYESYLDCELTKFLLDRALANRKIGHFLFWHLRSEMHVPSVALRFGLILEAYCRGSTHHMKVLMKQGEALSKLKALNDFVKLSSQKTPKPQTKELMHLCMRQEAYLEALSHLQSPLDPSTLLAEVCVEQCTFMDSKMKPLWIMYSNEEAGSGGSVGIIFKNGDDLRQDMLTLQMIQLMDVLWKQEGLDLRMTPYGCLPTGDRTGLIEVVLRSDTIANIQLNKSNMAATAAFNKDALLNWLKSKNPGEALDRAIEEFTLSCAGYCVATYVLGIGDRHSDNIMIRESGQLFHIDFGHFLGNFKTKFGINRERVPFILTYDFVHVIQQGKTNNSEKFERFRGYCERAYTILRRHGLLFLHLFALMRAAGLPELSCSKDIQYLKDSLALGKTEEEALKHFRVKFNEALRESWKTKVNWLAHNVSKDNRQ

| Compound | inhibits p110δ |
| --- | --- |
| Cc1ccccc1-n1c(Cn2cnc3c(N)ncnc32)nc2cccc(C)c2c1=O [IC87114] | high nanomolar range (triple digit) |
